Data on 4 compounds can be found in paper PMC8840560, “Naphthoquine: A Potent Broad-Spectrum Anti-Coronavirus Drug In Vitro” (Molecules, 2022).

For data set [1], the system named is SARS-CoV-2. On the set-up: method as in PMID 32194981, PMID 33995308. Particulars: in vitro; read-out: IC50 anti-SARS-CoV-2 in vitro; cited from earlier work.
Data set [2] deals with HCoV-229E. Nature of the data set: CPE inhibition assay, HCoV-229E-infected Huh7 cells. In kind it is cell-based. The note with it: for IC50: Human coronavirus 229E.
In data set [3] the test system is HCoV-OC43. Nature of the data set: CPE inhibition assay, HCoV-OC43-infected H460 cells. In kind it is cell-based. Particulars: for IC50: Betacoronavirus 1, NCI-H460, HCoV-OC43 (100 TCID50) in H460 cells, CPE, about 72 h, Reed-Muench.
Data set [4] has as its system SARS-CoV-2. In words: Anti-SARS-CoV-2 activity in Vero cells by qRT-PCR of viral RNA in supernatant. The note with it: Severe acute respiratory syndrome coronavirus 2; SARS-CoV-2 (100 TCID50) in Vero cells, qRT-PCR of supernatant RNA at 48 h, 12 h pretreatment. The format is cell-based. On the technique in general: In qPCR the cycle at which signal appears reflects the starting amount.

The test system of data set [5] is SARS-CoV-2. In words: Time-of-addition assay against SARS-CoV-2 in Vero cells. The format is cell-based. Particulars: 10 µM, qRT-PCR at 48 h.
Data set [6] in a line: in vitro. The note with it: human, Huh7 cells.
Data set [7] is described as follows: in vitro. Particulars: human, H460 cells.

Structures are written as SMILES. Where two headings read alike, the source gives them in different places. A value given as a limit tells only on which side of the number the result lay.

For the compound `CCN(CCO)CCCC(C)Nc1ccnc2cc(Cl)ccc12` (stereo not shown) [HCQ, hydroxychloroquine], in data set [1], the IC50 (as a rule, the concentration needed to halve the response being measured) is less than 10 µM.
As to `CCN(CC)CCCC(C)Nc1ccnc2cc(Cl)ccc12` (stereo not shown) [CQ, Chloroquine phosphate], the 50% inhibitory concentration (IC50) in data set [1] was less than 10 µM; in data set [2] (Huh-7, 48 h), 8.74 ± 7.27 µM; in data set [3], 3.16 ± 0.6 µM; in data set [4], 5.85 ± 0.97 µM. Moreover, the “inhibition of SARS-CoV-2 infection at all time points (full-time, first 3 h, last 46 h)” value in data set [5] is “effectively inhibit SARS-CoV-2 infection at all time points”.
For the compound `NC(=O)c1ncn([C@@H]2O[C@H](CO)[C@@H](O)[C@H]2O)n1` [RBV, Ribavirin], the CC50 (commonly the concentration giving 50% cytotoxicity) at 2 days in data set [6] was found to be 409 µM; in data set [7], 318 µM. Besides, the SI was found to be 26.54 in data set [2] and 15.34 in data set [3]. Also, the 50% inhibitory concentration (IC50) in data set [2] (Huh-7, HCoV-229E (100 TCID50) in Huh7 cells, CPE, about 48 h, Reed-Muench, read-out: IC50) amounted to 15.4 ± 5.57 µM; in data set [3], 20.7 ± 7.86 µM.
Regarding `OC(c1cc(C(F)(F)F)nc2c(C(F)(F)F)cccc12)C1CCCCN1` (stereo not shown) [mefloquine], the IC50 in data set [1] is less than 10 µM.
